Measured values: patent publication US20170326146A1, “METHODS OF TREATING HEPATITIS B INFECTIONS AND RELATED DOSAGE REGIMES” (ContraVir Pharmaceuticals, Inc., priority 2016, published 2017)
Where “and” joins values, the source holds several entries; their conditions need not be identical. Equal values may be shown once.

Columns and labels:
[1] = Pharmacokinetics of Compound I in human plasma: plasma concentrations of Compound I and tenofovir; format: in vivo; design: unit not given here; settings: single oral 5 mg dose of Compound I, individual subjects
Description: The pharmacokinetics of Compound I in human plasma was also evaluated. Plasma concentrations of Compound I and tenofovir (TFV) were measured at various time points up to 24 h after oral administration of a single 5 mg dose of Compound I. The results are summarized in Table 2.

[2] = Phase I clinical trial with healthy adults: safety, blood pressure, ECG; format: in vivo, human; settings: healthy subjects
Description: Eight healthy subjects were given Compound I orally at a daily dose of 5 mg for administration periods of between 9 and 14 days. […] Additionally, a placebo was administered to four healthy subjects for administration periods of between 9 and 14 days. The subjects were evaluated for changes in baseline blood pressure (FIGS. 1A and 1B: Changes in systolic and diastolic blood pressure, respectively, after administration of 5 mg of Compound I; FIGS. 2A and 2B: Changes in systolic and diastolic blood pressure, respectively, after administration of 10 mg of Compound I; FIGS. 3A and 3B: Changes in systolic and diastolic blood pressure, respectively, after administration of placebo). Furthermore, electrocardiograms (ECGs) were recorded to evaluate the change in baseline of heart rate, RR intervals, PR intervals, QRS duration and QTcF in each subject (FIGS. 4A and 4B: Changes in heart rate and RR interval, respectively, after administration of 5 mg of Compound I; FIGS. 5A and 5B: Changes in heart rate and RR interval, respectively, after administration of 10 mg of Compound I; FIGS. 6A and 6B: Changes in heart rate and RR interval, respectively, after administration of placebo; FIGS. 7A, 7B, and 7C: Changes in PR interval, QRS duration, and QTcF duration, respectively, after administration of 5 mg of Compound I; FIGS. 8A, 8B and 8C: Changes in PR interval, QRS duration, and QTcF duration, respectively, after administration of 10 mg of Compound I; FIGS. 9A, 9B and 9C: Changes in PR interval, QRS duration, and QTcF duration, respectively, after administration of placebo). In the Figures, as well as in Table 2 below, individual subjects are identified by 6-digit numbers. Subjects that were administered 5 mg of Compound I, 10 mg of Compound I, or a placebo, were monitored for between 15 and 18 days, between 9 and 11 days, or between 9 and 18 days after initiation of the study, respectively. […] The baselines are defined as the last variable assessment prior to initiation of the study.

[3] = 5 mg or 10 mg daily, dose groups and placebo not told apart

**Q.** Which “Pharmacokinetic plasma concentration of Compound I” value ([1]; 0.5 hours post-dose) does the source give for `CCCCCCCCCCCCCCCCOCCCOP(=O)(O)CO[C@H](C)Cn1cnc2c(N)ncnc21` [Compound I, 3-(hexadecyloxy)propyl hydrogen ((R)-1-(6-amino-9H-purin 9-yl)propan-2-yloxy)methylphosphonate] here?
**A.** 0.303 and 0.567 and <LLOQ < (0.150) (4×) and 1.090 and 0.893

**Q.** What about the “Pharmacokinetic plasma concentration of Compound I” value ([1]; 1 hour post-dose) of the same compound?
**A.** 1.310 and 0.592 and 2.980 and 2.080 and <LLOQ < (0.150) (2×) and 1.570 and 0.743

**Q.** And the “Pharmacokinetic plasma concentration of Compound I” value ([1]; 2 hours post-dose)?
**A.** 2.030 and 0.310 and 8.530 and 1.530 and 0.753 and 1.820 and 0.180 and 2.180

**Q.** What about the “Pharmacokinetic plasma concentration of Compound I” value ([1]; 2.5 hours post-dose) of the same compound?
**A.** 0.412 and 1.550 and 1.350 and 5.250 and 1.340 and 1.500 and 0.206 and 1.070

**Q.** What about the “Pharmacokinetic plasma concentration of Compound I” value ([1]; 3 hours post-dose) of the same compound?
**A.** 2.080 and 1.690 and 1.260 and 1.440 and 4.270 and 1.640 and 4.430 and 0.197

**Q.** What about the “Pharmacokinetic plasma concentration of Compound I” value ([1]; 4 hours post-dose) of the same compound?
**A.** 1.180 and 2.460 and 0.712 and 0.508 and 1.500 and 0.520 and 1.540 and <LLOQ < (0.150)

**Q.** What about the “Pharmacokinetic plasma concentration of Compound I” value ([1]; 6 hours post-dose) of the same compound?
**A.** 0.448 and 0.891 and 0.179 and <LLOQ < (0.150) (3×) and 0.372 and 0.389

**Q.** And the “Pharmacokinetic plasma concentration of Compound I” value ([1]; 10 hours post-dose)?
**A.** <LLOQ < (0.150)

**Q.** And the “Pharmacokinetic plasma concentration of Compound I” value ([1]; 12 hours post-dose)?
**A.** <LLOQ < (0.150)

**Q.** And the “Pharmacokinetic plasma concentration of Compound I” value ([1]; 15 hours post-dose)?
**A.** <LLOQ < (0.150)

**Q.** And the “Pharmacokinetic plasma concentration of Compound I” value ([1]; 18 hours post-dose)?
**A.** <LLOQ < (0.150)

**Q.** What about the “Pharmacokinetic plasma concentration of Compound I” value ([1]; 24 hours post-dose) of the same compound?
**A.** <LLOQ < (0.150)

**Q.** What about the “Pharmacokinetic plasma concentration of Compound I” value ([1]; Pre-dose) of the same compound?
**A.** <LLOQ < (0.150)

**Q.** What about the Adverse events reported [2, 3] of the same compound?
**A.** Few, minor adverse events (i.e., mild dizziness, headache or nausea)

**Q.** And the ECG abnormalities reported [2, 3]?
**A.** few ECG abnormalities (i.e., intraventricular conduction defect, frequent ventricular complexes and ectopic supraventricular rhythm)

**Q.** What about the “Premature discontinuation of the study” value ([2]; 5 mg or 10 mg of Compound I daily or placebo) of the same compound?
**A.** No subjects needed to discontinue the study prematurely

**Q.** What about the Safety and tolerability ([2]; oral daily dose of 5 mg for 9-14 days) of the same compound?
**A.** safe and well-tolerated

**Q.** And the Safety and tolerability ([2]; oral daily dose of 10 mg for 9-14 days)?
**A.** safe and well-tolerated

**Q.** Which “Pharmacokinetic plasma concentration of TFV” value ([1]; 0.5 hours post-dose) does the source give for `C[C@H](Cn1cnc2c(N)ncnc21)OCP(=O)(O)O` [TFV, tenofovir] here?
**A.** <LLOQ < (0.500)

**Q.** What about the “Pharmacokinetic plasma concentration of TFV” value ([1]; 1 hour post-dose) of the same compound?
**A.** <LLOQ < (0.500)

**Q.** And the “Pharmacokinetic plasma concentration of TFV” value ([1]; 2 hours post-dose)?
**A.** 0.519 and <LLOQ < (0.500) (4×) and 0.528 and 0.733

**Q.** And the “Pharmacokinetic plasma concentration of TFV” value ([1]; 2.5 hours post-dose)?
**A.** 0.822 and 0.693 and 0.665 and 0.708 and 0.596 and <LLOQ < (0.500) and 0.959

**Q.** What about the “Pharmacokinetic plasma concentration of TFV” value ([1]; 3 hours post-dose) of the same compound?
**A.** 0.891 and <LLOQ < (0.500) (2×) and 0.764 and 0.900 and 0.781 and 0.648 and 0.918

**Q.** What about the “Pharmacokinetic plasma concentration of TFV” value ([1]; 4 hours post-dose) of the same compound?
**A.** 1.140 (2×) and <LLOQ < (0.500) and 0.900 and 0.948 and 0.750 and 0.594 and 0.903

**Q.** And the “Pharmacokinetic plasma concentration of TFV” value ([1]; 6 hours post-dose)?
**A.** 1.370 and 0.560 and 0.908 and 1.110 and 1.080 and 0.711 and 0.609 and 0.804

**Q.** What about the “Pharmacokinetic plasma concentration of TFV” value ([1]; 10 hours post-dose) of the same compound?
**A.** 1.300 and 0.526 and 0.695 and 0.800 and 0.652 and 0.516 and 0.558 and 0.659

**Q.** And the “Pharmacokinetic plasma concentration of TFV” value ([1]; 12 hours post-dose)?
**A.** 1.140 and <LLOQ < (0.500) (4×) and 0.535 and 0.664 and 0.574

**Q.** And the “Pharmacokinetic plasma concentration of TFV” value ([1]; 15 hours post-dose)?
**A.** 1.040 and <LLOQ < (0.500) (6×) and 0.581

**Q.** And the “Pharmacokinetic plasma concentration of TFV” value ([1]; 18 hours post-dose)?
**A.** 0.759 and <LLOQ < (0.500) (7×)

**Q.** What about the “Pharmacokinetic plasma concentration of TFV” value ([1]; 24 hours post-dose) of the same compound?
**A.** 0.599 and <LLOQ < (0.500) (7×)

**Q.** And the “Pharmacokinetic plasma concentration of TFV” value ([1]; Pre-dose)?
**A.** <LLOQ < (0.500)
